In this experiment the target is T1, HMGCR (Cricetulus griseus, UniProt P00347).
T1 construct: endogenous in cells; host or cells: CHO-7, CHG, SRD-13A, SRD-15
T1 sequence (P00347 1-887): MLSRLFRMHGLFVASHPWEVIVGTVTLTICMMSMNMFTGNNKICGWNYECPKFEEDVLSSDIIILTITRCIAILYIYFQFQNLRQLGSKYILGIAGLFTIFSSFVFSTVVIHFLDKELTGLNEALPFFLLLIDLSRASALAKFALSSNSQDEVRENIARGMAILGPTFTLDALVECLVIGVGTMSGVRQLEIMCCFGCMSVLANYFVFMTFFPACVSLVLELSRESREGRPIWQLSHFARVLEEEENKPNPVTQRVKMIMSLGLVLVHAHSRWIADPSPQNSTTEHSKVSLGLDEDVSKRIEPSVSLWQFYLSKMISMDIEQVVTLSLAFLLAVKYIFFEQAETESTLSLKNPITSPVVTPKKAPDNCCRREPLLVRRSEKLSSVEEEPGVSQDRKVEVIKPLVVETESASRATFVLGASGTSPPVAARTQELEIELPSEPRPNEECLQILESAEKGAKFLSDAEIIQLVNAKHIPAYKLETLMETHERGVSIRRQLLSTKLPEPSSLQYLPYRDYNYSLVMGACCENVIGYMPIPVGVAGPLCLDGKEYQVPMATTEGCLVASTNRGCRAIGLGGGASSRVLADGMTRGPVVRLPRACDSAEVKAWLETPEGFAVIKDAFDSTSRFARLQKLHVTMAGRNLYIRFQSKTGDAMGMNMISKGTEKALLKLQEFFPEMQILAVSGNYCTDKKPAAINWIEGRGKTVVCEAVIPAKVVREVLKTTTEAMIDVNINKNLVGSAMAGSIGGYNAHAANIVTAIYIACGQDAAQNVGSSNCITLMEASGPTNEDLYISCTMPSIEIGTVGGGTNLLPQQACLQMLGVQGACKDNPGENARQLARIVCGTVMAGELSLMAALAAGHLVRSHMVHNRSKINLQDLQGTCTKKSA
Nature of the experiment: Immunoblotting of HMGCR protein in SRD-13A (Scap-deficient CHO-7) cells. Format: cell-based, Chinese hamster. The conditions noted are these: for HMGCR protein level, mean: SRD-13A, 16 h. The method, then:
CHO-7 (Chinese hamster ovary cell, a clone of CHO-K1 cell line selected for growth in LPDS) and Huh7 (a human hepatocellular carcinoma cell line), SRD-13A (a Scap-deficient CHO-7 cell line) and SRD-15 (an Insig-1 and Insig-2-deficient CHO-7 cell line) were generous gifts from Russell Debose-Boyd at UT Southwestern Medical Center, USA. All cells were grown in a monolayer at 37 °C with 5% CO2. Huh7 cells were maintained in medium A supplemented with 10% FBS. CHO-7 and SRD-15 cells were maintained in medium B supplemented with 5% FBS. SRD-13A cells were maintained in medium B with 5% FBS, 5 μg ml^−1 cholesterol, 1 mM sodium mevalonate, 10 μM sodium oleate. No cell lines used in this study were found in the database of commonly misidentified cell lines that is maintained by ICLAC and NCBI Biosample. The cell lines have not been authenticated recently. No test for mycoplasma contamination was performed.
Cells were harvested and homogenized in the RIPA buffer (50 mM Tris-HCl, pH 8.0, 150 mM NaCl, 2 mM MgCl2, 1.5% NP-40, 0.1% SDS, and 0.5% sodium deoxycholate) supplemented with protease cocktail inhibitor, 10 μM MG-132, 10 μg ml^−1 leupeptin and 1 mM phenylmethylsulfonyl fluoride. The protein concentrations of lysates were determined using BCA method (Beyotime). Samples were mixed with the membrane protein solubilization buffer (62.5 mM Tris-HCl, pH 6.8, 15% SDS, 8 M urea, 10% glycerol, and 100 mM DTT) plus the 4× loading buffer (150 mM Tris-HCl, pH 6.8, 12% SDS, 30% glycerol, 6% 2-mercaptoethanol, and 0.02% bromophenol blue) and incubated for 30 min at 37 °C. Proteins were resolved by SDS-PAGE and transferred to nitrocellulose membranes (GE Healthcare). Immnoblots were blocked with 5% non-fat milk in TBS containing 0.075% Tween-20 (TBST) and probed with indicated antibodies overnight at 4 °C. After washing in TBST for five times, blots were incubated with HRP-conjugated secondary antibodies for 2 h at room temperature. Immunoreactivity was developed with Clarity Western ECL chemiluminescent substrates (170–5061, Bio-Rad). Western blot images were captured by Amersham Imager 600 (GE Healthcare), and integrated optical intensities of each band were quantified by Image-Pro Plus 6 software (Media Cybernetics). Uncropped blots are shown in Supplementary Figs. 9–13.

Data on one compound can be found in paper PMC6277434, “Discovery of a potent HMG-CoA reductase degrader that eliminates statin-induced reductase accumulation and lowers cholesterol” (Nature Communications, 2018).

A value given as a limit tells only on which side of the number the result lay.

In the case of `CC[C@H](C)C(=O)O[C@H]1C[C@@H](C)C=C2C=C[C@H](C)[C@H](CC[C@@H]3C[C@@H](O)CC(=O)O3)[C@H]21` [Lovastatin, lovastatin], the “increase of HMGCR protein” value (SRD-13A cells, lovastatin 16 h) was at most 8 fold. For the same compound, the “HMGCR protein level, mean” value (lovastatin 0.001 uM) came to 0.9418; the “HMGCR protein level, mean” value (lovastatin 0.003 uM) turned out to be 1.178; the “HMGCR protein level, mean” value (lovastatin 0.01 uM) is on record as 2.758; the “HMGCR protein level, mean” value (lovastatin 0.03 uM) is 4.962; the “HMGCR protein level, mean” value (lovastatin 0.1 uM) was 7.087; the “HMGCR protein level, mean” value (lovastatin 0.3 uM) amounted to 7.139. Also, the “HMGCR protein level, mean” value (lovastatin 1 uM) amounted to 8.174; the “HMGCR protein level, mean” value (lovastatin 3 uM) is reported as 8.262; the “HMGCR protein level, mean” value (lovastatin 10 uM) is reported as 7.249.
